From patent publication US8742082B2, “Compositions and methods for influencing satiety, lipid metabolism, and fat utilization” (Nestec S.A., priority 2008, dated 2014)

Legend:
CPT1 = assay: Real-time PCR gene expression in peripheral tissues: CPT1; type: in vivo; details: C57bl6j mice, high fat diet, 100 mg/kg/body weight in diet, 5 weeks
Protocol: (§1) The expression of 45 genes was measured by real-time PCR in peripheral tissues to identify genes that were differentially expressed in response to oral administration of oleoylethanolamide (OEA) or a non-hydrolysable OEA analog (KDS 5104), which affect satiety, lipid metabolism, fat utilization, food intake, and body fat mass.
Animals, diet, and experimental design. Adult male C57bl6j mice purchased at 8 weeks of age were individually housed and maintained ad libitum on high fat diet and water for 2 weeks. Seven mice were randomly allocated in 3 groups and fed with a high fat diet (lipids represented 50% of daily energy) for 2 weeks. For one kilogram, the composition of the high fat diet was: 235 g casein, 201 g saccharose, 3.5 g L-cystine, 85 g starch, 116 g maltodextrin, 60 g cellulose, 12 g vitamins mix (AIN-93M, UPAE, Jouy-en-Josas, France), 51.5 g mineral mix (AIN-93Vx, UPAE, Jouy-en-Josas, France), and 236 g lard. Then, either OEA or KDS 5104 was added to the diet at a concentration of 100 mg/kg/body weight. The mice were kept under treatment for 5 weeks.
Sampling. At the end of the experimental period, mice were sacrificed by blood drawing (cardiac puncture) after anesthesia with isoflurane. Plasma was obtained by centrifugation (1,000 g for 10 min at 4° C.). Mesenteric, epididymal, inguinal and peritoneal adipose depots, as well as liver, stomach, small intestine mucosa, pancreas, and gastrocnemian muscle were removed and frozen into liquid nitrogen. Plasma, urine, feces, and organ samples were kept at −80° C. until analysis.
RNA extraction and gene expression. Total RNA from liver, intestine mucous membrane, adipose tissues, gastrocnemian muscle, pancreas and stomach were extracted with TRIzol reagent (Invitrogen, Carlsbad, USA) according to the manufacturer's instruction. The RNA concentration was determined on nanodrop from the absorbance at 260 nm. Retro-transcription PCRs to synthesize cDNA were performed using an Applied Biosystem Thermal Cycler 2720 and Superscript II (Invitrogen, Carlsbad, USA) according to manufacturer's protocol. Real-time quantitative PCR (RT-qPCR) were performed on cDNA obtained as described above using a high through put system (Biomek 3000, Beckman & Coulter, Fullerton, USA) and a Lightcycler 480 (Roche/Hitachi, Basel, Switzerland) with SYBR Green Master mix+kit (Eurogentec, Philadelphia, USA). Primers for the selected genes were generated using online informatics assistance from the Lightcycler manufacturer (Roche). Databases used to identify the genes were (1) the NCBI database (GenBank) and (2) the IHOP (Information Hyperlinked over Protein) database (www.ihop-net.org/UniPub/iHOP/bng/). Values were expressed as ratio of RNA levels relative to control mice (diets with 0 mg of OEA/kg/body weight) using ΔΔ(Ct) (Livak K J & Schmittgen T D, 2001, Methods 25:402-8). Gene expression of the following genes was measured (abbreviation and GenBank Accession shown in parentheses).
Statistical analysis. […] Statistical analysis of physiological parameters and gene expression data was performed by one-way ANOVA on Statview software (SAS Institute, Cary, USA). Daily food intake was analyzed using two-way ANOVA on Statview software. Statistical significance was set up at the P<0.05 level, the P<0.01 level and the P<0.001 level. For statistical analysis of the gene expression data, values were calculated relative to 18S expression for each mouse and gene.

PPAR α = target: T1, PPAR α (Mus musculus, UniProt P23204); details: wild-type and PPAR α (−/−) mice; cited from earlier work
T1 construct: host or cells: wild-type mice (endogenous protein)

[1] = system: Protein convertase subtilisin/kexin type 9 (PCSK 9); assay: Real-time PCR gene expression in peripheral tissues: PCSK9; type: in vivo; details: liver; C57bl6j mice, high fat diet, 100 mg/kg/body weight in diet, 5 weeks
Protocol: as §1
(§2) Animals, diet, and experimental design. Adult male C57bl6j mice purchased at 8 weeks of age were individually housed and maintained ad libitum on high fat diet and water for 2 weeks. Seven mice were randomly allocated in 3 groups and fed with a high fat diet (lipids represented 50% of daily energy) for 2 weeks. […]
(§3) RNA extraction and gene expression. […] The RNA concentration was determined on nanodrop from the absorbance at 260 nm. […] Real-time quantitative PCR (RT-qPCR) were performed on cDNA obtained as described above using a high through put system (Biomek 3000, Beckman & Coulter, Fullerton, USA) and a Lightcycler 480 (Roche/Hitachi, Basel, Switzerland) with SYBR Green Master mix+kit (Eurogentec, Philadelphia, USA). […] Values were expressed as ratio of RNA levels relative to control mice (diets with 0 mg of OEA/kg/body weight) using ΔΔ(Ct) (Livak K J & Schmittgen T D, 2001, Methods 25:402-8). Gene expression of the following genes was measured (abbreviation and GenBank Accession shown in parentheses). […]

[2] = oral, over the 12 first hours; cited from earlier work
[3] = system: Glucose transporter 4 (Glut 4); assay: Real-time PCR gene expression in peripheral tissues: Glut 4; type: in vivo; details: muscle; C57bl6j mice, high fat diet, 100 mg/kg/body weight in diet, 5 weeks
Protocol: as §1, §2, §3

[4] = system: Uncoupling protein 2 (UCP2); assay: Real-time PCR gene expression in peripheral tissues: UCP2; type: in vivo; details: muscle; C57bl6j mice, high fat diet, 100 mg/kg/body weight in diet, 5 weeks
Protocol: as §1, §2, §3

[5] = Chronic oral OEA in high fat diet: plasma triglycerides and cholesterol; type: in vivo; details: C3H mice, 4 weeks; for Plasma triglycerides, change: P<0.05
Source text: The physiological and biochemical effects of chronic oral OEA administration were investigated. Mice were chronically fed with OEA, provided as a supplement during 4 weeks, to study the effect on body weight gain and cumulative food intake, among other parameters.
Animals, diet and experimental design. Adult male C3H mice purchased at 8 weeks of age were individually housed and maintained ad libitum on different diets and water for 2 weeks. Seven mice were allocated in 3 groups by randomization by weight, and fed with a high fat diet (lipids represented 50% of daily energy) during 2 weeks. The composition of the high fat diet per kg was: 284.5 g of corn starch, 89.5 g of saccharose, 250 g of casein, 50 g of cellulose, 10 g of a mix of vitamins (V1001), 35 g of a mix of minerals (S10026) and 281 g of canola oil (UPAE, Jouy en Josas, France). Then, OEA was added to the diets at different levels to provide 0, 10, or 100 mg OEA/kg body weight. The mice were kept on each respective diet for 4 weeks. During the nutritional intervention, daily food intake was monitored and the mice were weighed 3 times a week.
Sampling. At the end of the experimental period, mice were sacrificed by blood drawing after anesthesia with isoflurane. Plasma was obtained by centrifugation (1,000 g for 10 min at 4° C.). Mesenteric, epididymal, inguinal and peritoneal adipose depots, as well as liver, stomach, small intestine mucosa and gastrocnemian muscle were excised and frozen into liquid nitrogen. Plasma and organ samples were kept at −80° C. until analysis. Triglycerides, glucose, total cholesterol and HDL cholesterol were directly measured on plasma samples collected during the sacrifice by enzymatic procedures, using a Beckman Coulter Systems SYNCHRON LX 20 (Beckman Coulter, Fullerton, USA) (oxidase method, Beckman Coulter for glucose, GPO method, Beckman Coulter for TG, oxidase and esterase method, Beckman Coulter for cholesterol). HDL were isolated by specific solubilization, using a precipitation isolation kit (Beckman Coulter, Fullerton, USA).
Statistical analysis. Results were determined as mean±standard error of the mean (SEM). Statistical analysis of physiological parameters was performed by one-way ANOVA on Statview software (SAS institute, Cary, USA). Statistical significance was set up at the P<0.05 level.

[6] = system: Peroxisome proliferator activated receptor alpha (PPAR α); assay: Real-time PCR gene expression in peripheral tissues: PPAR α; type: in vivo; details: proximal intestine; C57bl6j mice, high fat diet, 100 mg/kg/body weight in diet, 5 weeks
Protocol: as §1, §2, §3

T1 sequence (P23204 whole entry): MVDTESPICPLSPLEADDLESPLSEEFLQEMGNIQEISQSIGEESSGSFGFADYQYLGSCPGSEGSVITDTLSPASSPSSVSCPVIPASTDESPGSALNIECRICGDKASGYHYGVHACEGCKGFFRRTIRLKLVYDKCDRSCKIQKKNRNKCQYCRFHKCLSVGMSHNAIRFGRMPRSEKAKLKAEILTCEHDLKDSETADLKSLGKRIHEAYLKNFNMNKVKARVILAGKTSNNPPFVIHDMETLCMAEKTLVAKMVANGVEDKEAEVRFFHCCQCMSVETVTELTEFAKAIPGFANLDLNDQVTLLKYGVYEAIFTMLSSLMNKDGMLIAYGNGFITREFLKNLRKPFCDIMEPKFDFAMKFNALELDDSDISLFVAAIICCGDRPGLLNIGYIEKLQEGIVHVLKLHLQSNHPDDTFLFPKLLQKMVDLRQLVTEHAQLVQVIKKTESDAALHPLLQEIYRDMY

Q: With `CCCCCCCC/C=C\CCCCCCCC(=O)NCCO` [OEA, N-oleoyl-ethanolamide] as the compound, how does the “CPT1 l, ratio of RNA levels relative to control mice” value (CPT1; liver) read?
A: 1.74

Q: What about the “CPT1 p, ratio of RNA levels relative to control mice” value (CPT1; pancreas) of the same compound?
A: 1.35

Q: What about the “CPT1 i, ratio of RNA levels relative to control mice” value (CPT1; proximal intestine) of the same compound?
A: 2.00

Q: What about the “food intake, wild-type vs PPAR α (−/−) mice” value (PPAR α) of the same compound?
A: regulates food intake in wild-type mice but not in PPAR α (−/−) mice

Q: And the “PCSK9 l, ratio of RNA levels relative to control mice” value [1]?
A: 1.44

Q: What about the “food intake after acute gavage” value [2] of the same compound?
A: decrease significantly

Q: What about the “Glut 4 m, ratio of RNA levels relative to control mice” value [3] of the same compound?
A: 3.27

Q: What about the “UCP2 m, ratio of RNA levels relative to control mice” value [4] of the same compound?
A: 1.19

Q: And the “Plasma triglycerides, change” value ([5]; 10 mg dose)?
A: −72%

Q: What about the plasma total cholesterol ([5]; 10 mg/kg) of the same compound?
A: trend to decreased

Q: And the “Plasma triglycerides, change” value ([5]; 100 mg dose)?
A: −59%

Q: What about the “plasma total cholesterol (decrease)” value ([5]; 100 mg/kg body weight) of the same compound?
A: reached statistical significance

Q: And the “PPAR α i, ratio of RNA levels relative to control mice” value [6]?
A: 1.20
